Measurements from patent US7517874B2 (priority 2007, dated 2009).
Read-outs that look alike come from different tables or passages of the source.

What was measured:
[1] = biological target: human CB1 receptor (hCB1) (Homo sapiens, UniProt P21554); test: cell-based; assay type: cell-based; settings: for +/− HCB1: agonist or inverse agonist at hCB1
Outline: (§1)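 First, cells in IBMX-containing HEPES-buffered HBSS are raised to elevated cAMP with 2-8 μM NKH-477 for 30 min. Data are normalised to the forskolin and forskolin + 1 μM CP55,940 controls.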

rat CB2 receptor (rCB2) = biological target: T1, rat CB2 receptor (rCB2) (Rattus norvegicus, UniProt Q9QZN9); test: cell-based; assay type: cell-based; settings: for +/− RCB2: agonist or inverse agonist at rCB2
T1 sequence (Q9QZN9 1-360): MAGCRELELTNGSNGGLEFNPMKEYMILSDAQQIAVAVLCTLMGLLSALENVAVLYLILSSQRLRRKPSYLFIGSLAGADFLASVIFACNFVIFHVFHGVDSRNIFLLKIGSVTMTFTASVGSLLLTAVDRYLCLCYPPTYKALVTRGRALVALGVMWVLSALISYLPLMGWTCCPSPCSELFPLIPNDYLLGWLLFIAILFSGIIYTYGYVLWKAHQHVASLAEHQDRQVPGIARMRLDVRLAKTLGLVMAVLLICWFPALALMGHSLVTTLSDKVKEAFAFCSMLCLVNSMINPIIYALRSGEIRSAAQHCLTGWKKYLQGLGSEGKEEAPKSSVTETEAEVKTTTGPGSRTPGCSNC
Outline: as §1

Chain of human CB1 receptor (hCB1) (P21554 whole entry): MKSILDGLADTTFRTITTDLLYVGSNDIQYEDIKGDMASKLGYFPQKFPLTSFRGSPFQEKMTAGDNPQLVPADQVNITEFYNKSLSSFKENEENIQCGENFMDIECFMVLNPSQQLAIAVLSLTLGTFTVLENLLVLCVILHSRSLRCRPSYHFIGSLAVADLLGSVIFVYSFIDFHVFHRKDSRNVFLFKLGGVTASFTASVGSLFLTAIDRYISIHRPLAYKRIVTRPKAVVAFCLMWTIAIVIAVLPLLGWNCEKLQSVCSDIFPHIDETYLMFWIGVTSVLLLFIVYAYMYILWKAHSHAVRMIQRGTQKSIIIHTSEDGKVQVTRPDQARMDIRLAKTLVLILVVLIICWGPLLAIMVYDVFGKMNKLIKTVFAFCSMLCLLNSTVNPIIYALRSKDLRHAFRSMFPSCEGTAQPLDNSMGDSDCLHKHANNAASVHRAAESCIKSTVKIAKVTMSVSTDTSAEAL

Structure (SMILES) | EC50 [1] [nM] | +/− RCB2 (rat CB2 receptor (rCB2)) | other results
CNC(=O)[C@@H](NC(=O)c1nc(-c2ccccc2F)n2c1CN(C)CC2)C(C)(C)C [Compound 258, (S)-N-(3,3-dimethyl-1-(methylamino)-1-oxobutan-2-yl)-3-(2-fluorophenyl)-7-methyl-5,6,7,8-tetrahydroimidazo[1,5-a]pyrazine-1-carboxamide] | > 10000 |  | EC50 (rat CB2 receptor (rCB2)): > 10000 nM
CCN1CCn2c(-c3ccc(Cl)cc3)nc(C(=O)N[C@H](CO)C(C)(C)C)c2C1 [Compound 161, (S)-3-(4-chlorophenyl)-7-ethyl-N-(1-hydroxy-3,3-dimethylbutan-2-yl)-5,6,7,8-tetrahydroimidazo[1,5-a]pyrazine-1-carboxamide] | > 10000 | − | 
CNC(=O)[C@@H](NC(=O)c1nc(/C=C/C2CC2)n2c1CN(C)CC2)C(C)(C)C [Compound 273, (S,E)-3-(2-cyclopropylvinyl)-N-(3,3-dimethyl-1-(methylamino)-1-oxobutan-2-yl)-7-methyl-5,6,7,8-tetrahydroimidazo[1,5-a]pyrazine-1-carboxamide] | > 10000 |  | EC50 (rat CB2 receptor (rCB2)): > 10000 nM
CCS(=O)(=O)N1CCCn2c(-c3ccccc3)nc(C(=O)N[C@H](C(=O)NC)C(C)(C)C)c2C1 [Compound 461, (S)-N-(3,3-dimethyl-1-(methylamino)-1-oxobutan-2-yl)-8-(ethylsulfonyl)-3-phenyl-6,7,8,9-tetrahydro-5H-imidazo[1,5-a][1,4]diazepine-1-carboxamide] | > 10000 | − | 
CNC(=O)[C@@H](NC(=O)c1nc(-c2ccccc2)n2c1CN(C(C)=O)CC2)C(C)(C)C [Compound 174, (S)-7-acetyl-N-(3,3-dimethyl-1-(methylamino)-1-oxobutan-2-yl)-3-phenyl-5,6,7,8-tetrahydroimidazo[1,5-a]pyrazine-1-carboxamide] | > 10000 | + | 
CNC(=O)[C@@H](NC(=O)c1nc(/C=C/C2CC2)n2c1CN(C)CCC2)C(C)(C)C [Compound 436, (S,E)-3-(2-cyclopropylvinyl)-N-(3,3-dimethyl-1-(methylamino)-1-oxobutan-2-yl)-8-methyl-6,7,8,9-tetrahydro-5H-imidazo[1,5-a][1,4]diazepine-1-carboxamide] |  | + | +/− HCB1 [1]: +
CN1CCn2c(-c3ccc(Cl)cc3F)nc(C(=O)NC3CCN(S(C)(=O)=O)CC3)c2C1 [Compound 213, 3-(4-chloro-2-fluorophenyl)-7-methyl-N-(1-(methylsulfonyl)piperidin-4-yl)-5,6,7,8-tetrahydroimidazo[1,5-a]pyrazine-1-carboxamide] |  |  | EC50 ([1]; groups >100 nM-10 μM and >10 μM, cAMP, CHO-K1 hCB1, read-out: EC50 HCB1): > 10000 nM; EC50 (rat CB2 receptor (rCB2); groups >100 nM-10 μM and >10 μM, cAMP, CHO-K1 rCB2, read-out: EC50 RCB2): > 10000 nM
CNC(=O)[C@@H](NC(=O)c1nc(C2=CCCCCC2)n2c1CN(C)CCC2)C(C)(C)C [Compound 457, (S,E)-3-cycloheptenyl-N-(3,3-dimethyl-1-(methylamino)-1-oxobutan-2-yl)-8-methyl-6,7,8,9-tetrahydro-5H-imidazo[1,5-a][1,4]diazepine-1-carboxamide] | > 10000 | − | 
CNC(=O)[C@@H](NC(=O)c1nc(C2=CCCC2)n2c1CN(C)CCC2)C(C)(C)C [Compound 456] | > 10000 | + | 
CN1CCn2c(-c3ccccc3)nc(C(=O)N[C@H](C(=O)O)C(C)(C)C)c2C1 [Compound 281, (S)-3,3-dimethyl-2-(7-methyl-3-phenyl-5,6,7,8-tetrahydroimidazo[1,5-a]pyrazine-1-carboxamido)butanoic acid] | > 10000 | + | 
CN1CCCn2c(-c3cc(F)c(F)cc3F)nc(C(=O)N[C@@H](CC(C)(C)C)C(N)=O)c2C1 [Compound 590, (S)-N-(1-amino-4,4-dimethyl-1-oxopentan-2-yl)-8-methyl-3-(2,4,5-trifluorophenyl)-6,7,8,9-tetrahydro-5H-imidazo[1,5-a][1,4]diazepine-1-carboxamide] |  | + | +/− HCB1 [1]: +
